Values quoted from earlier work, collected in patent publication US20120097160A1, “AGGLOMERATE FORMULATIONS INCLUDING ACTIVE PHARMACEUTICAL AGENTS WITH TARGETED PARTICLE SIZES” (SCHERING CORPORATION, priority 2009, published 2012).
Read-outs that look alike come from different tables or passages of the source.

C[C@@H]1C[C@H]2[C@@H]3CCC4=CC(=O)C=C[C@]4(C)[C@@]3(Cl)[C@@H](O)C[C@]2(C)[C@@]1(OC(=O)c1ccco1)C(=O)CCl [Mometasone furoate, 9,21-Dichloro-11(beta), 17-dihydroxy-16(alpha)-methylpregna-1,4-diene-3,20-dione 17-(2 furoate)]
solubility (acetone): soluble | solubility (chloroform): soluble | solubility (ethanol): slightly soluble | solubility (isopropanol): slightly soluble | solubility (methanol): slightly soluble | solubility (tetrahydrofuran): freely soluble | solubility (water): practically insoluble
